Data reported in patent US20140303092A1 (CHIMERIX, INC., priority 2011, published 2014).

Assay: Study HDP-CDV-201: safety and tolerability (adverse events, laboratory abnormalities, discontinuations)
Format: in vivo, human (adult allogeneic HSCT recipients)
Conditions: Cohort 2, 100 mg QW
Experimental: Clinical Studies of HDP-CDV were performed and described in detail in the following Examples. For example, HDP-CDV-201 is a placebo-controlled, dose-escalating trial in HSCT CMV (R+) recipients, evaluating the ability of HDP-CDV to prevent or control CMV infection was carried out. Five cohorts were established in which participants or subjects received either placebo or the HDP-CDV orally, in doses ranging from 40 mg weekly (QW) to 200 mg twice weekly (BIW). Subjects who were post-HSCT were enrolled at the time of engraftment and randomized to HDP-CDV or placebo (3 to 1 ratio) and received blinded therapy until approximately 100 day post-transplantation. HDP-CDV doses were 40 mg QW, 100 mg QW, 200 mg QW, 200 mg BIW and 100 mg BIW. Escalation to the next dose was decided by the data monitoring committee after review of the safety data from the previous Cohort. Subjects who developed CMV disease or CMV infection requiring pre-emptive therapy with local standard of care were discontinued from blinded therapy and followed for 4 weeks. Subjects who completed treatment with blinded therapy were followed for 8 weeks post-therapy.
Data from Study HDP-CDV-201 also provided characterization of the safety and tolerability profile of HDP-CDV when administered for the prevention or control of CMV infection in high risk (R^+) post-HSCT adult subjects.
The Safety population (SAFETY) included all randomized subjects who took at least one dose of study treatment. This population was used to summarize safety outcomes based on the treatment actually received, in cases where a subject was treated contrary to the randomization schedule.
The safety and tolerability profile of HDP-CDV, including subject demographics and Baseline characteristics; the AE profile; and laboratory abnormalities of interest were analyzed in the cohorts followed in this investigation.
Subjects completing the treatment period received a full course of study medication; those completing the entire study attended visits through 8 weeks of follow up. Subjects who discontinued treatment may have done so for protocol specified reasons (e.g. development of clinically significant CMV infection requiring preemptive treatment with excluded anti-CMV medications) or for other reasons (e.g., withdrawal, adverse events, loss to follow-up). The disposition of subjects in Study HDP-CDV-201 during the double-blind, placebo-controlled treatment period (through Week 11) is listed by dosing Cohort in TABLE 23.
Adverse events were examined by severity to ensure that all safety signals were identified in this study population. Because of the frequency of events in HSCT recipients, particular attention was given to evaluation of Grade 3 […], 4 (severe), and 5 (fatal) adverse events.
Only those preferred terms for which at least one Grade 3 or higher event was experienced in any treatment group are listed. Cytomegalovirus-related AEs are excluded from this analysis.
HDP-CDV is a lipid conjugate of CDV. Because CDV is known to have adverse effects on renal function and bone marrow, decreased GFR and persistent neutropenia were identified as AEs of special interest. Key renal and hematological (TABLE 30) laboratory parameters were measured and listed below by Study HDP-CDV-201 treatment groups. TABLE 30 includes abnormal levels of serum creatinine, neutrophils, platelets, WBCs, and hemoglobin and includes data at Screening and during the treatment period.
A common metric for unit based dosing of medications is by weight (mg/kg). When the distribution of weights was examined for all subjects participating in the study, the median was 78 kg and the lower 25th percentile weight was approximately 65 kg, which translates to a cut-off of ˜3 mg/kg for a 200 mg total weekly dose. Based upon this approach, a cut-off of 3 mg/kg was used to assess the frequency of diarrhea and associated GI AEs reported for the subjects in Cohorts 3 or 4a (TABLE 40).

SMILES: CCCCCCCCCCCCCCCCOCCCOP(=O)(O)COC(CO)Cn1ccc(N)nc1=O (stereo not shown) [HDP-CDV]
- Alkaline Phosphatase (Screening) >2.5-5.0 × ULN, subjects: 0
- Alkaline Phosphatase (Screening) >5.0-20.0 × ULN, subjects: 0
- Alkaline Phosphatase (Screening) >20.0 × ULN, subjects: 0
- Alkaline Phosphatase (Screening) >ULN-[…] ULN, subjects: 6 (22.2%)
- Alkaline Phosphatase (any time during therapy) >2.5-5.0 × ULN, subjects: 1 (3.7%)
- Alkaline Phosphatase (any time during therapy) >5.0-20.0 × ULN, subjects: 1 (3.7%)
- Alkaline Phosphatase (any time during therapy) >20.0 × ULN, subjects: 0
- Alkaline Phosphatase (any time during therapy) >ULN-[…] ULN, subjects: 7 (25.9%)
- GI AE Leading to Study Drug Discontinuation: Abdominal pain, subjects: 0
- GI AE Leading to Study Drug Discontinuation: Diarrhoea, subjects: 0
- GI AE Leading to Study Drug Discontinuation: Dyspepsia, subjects: 0
- GI AE Leading to Study Drug Discontinuation: Nausea, subjects: 0
- GI AE Leading to Study Drug Discontinuation: Vomiting, subjects: 1 (3.7%)
- GI AEs Leading to Study Drug Discontinuation: Total subjects discontinued: 1 (3.7%)
- Gastrointestinal AE Abdominal discomfort, subjects: 1 (3.7%)
- Gastrointestinal AE Abdominal distention, subjects: 2 (7.4%)
- Gastrointestinal AE Abdominal pain upper, subjects: 2 (7.4%)
- Gastrointestinal AE Abdominal pain, subjects: 2 (7.4%)
- Gastrointestinal AE Constipation, subjects: 0
- Gastrointestinal AE Diarrhoea, subjects: 8 (29.6%)
- Gastrointestinal AE Diverticulum intestinal haemorragic, subjects: 0
- Gastrointestinal AE Dyspepsia, subjects: 2 (7.4%)
- Gastrointestinal AE Dysphagia, subjects: 1 (3.7%)
- Gastrointestinal AE Epigastric discomfort, subjects: 1 (3.7%)
- Gastrointestinal AE Flatulence, subjects: 1 (3.7%)
- Gastrointestinal AE GERD, subjects: 4 (14.8%)
- Gastrointestinal AE Gastritis, subjects: 1 (3.7%)
- Gastrointestinal AE Haematochezia, subjects: 0
- Gastrointestinal AE Haemorroids, subjects: 0
- Gastrointestinal AE Large intestinal ulcer, subjects: 0
- Gastrointestinal AE Nausea, subjects: 5 (18.5%)
- Gastrointestinal AE Odynophagia, subjects: 0
- Gastrointestinal AE Oesophagitis, subjects: 0
- Gastrointestinal AE Retching, subjects: 1 (3.7%)
- Gastrointestinal AE Vomiting, subjects: 6 (22.2%)
- Hepatobiliary clinical AE Cholelithiasis, subjects: 0
- Hepatobiliary clinical AE Hepatomegaly, subjects: 0
- Hepatobiliary clinical AE Hyperbilirubinaemia, subjects: 0
- Hepatobiliary clinical AE Jaundice, subjects: 0
- Hepatobiliary clinical AE Liver injury, subjects: 0
- Intensity of Gastrointestinal AEs, Grade 1, subjects: 6 (22.2%)
- Intensity of Gastrointestinal AEs, Grade 2, subjects: 10 (37.0%)
- Intensity of Gastrointestinal AEs, Grade 3, subjects: 1 (3.7%)
- Intensity of Gastrointestinal AEs, Grade 4, subjects: 0
- Intensity of Gastrointestinal AEs, Grade 5, subjects: 0
- Proportion of Subjects with Stage 3 or 4 Gut GVHD: 0%
- Serum ALT level, Median fold increase from Baseline at Follow-up Week 1: 1.50 fold
- Serum ALT level, Median fold increase from Baseline at Follow-up Week 4: 0.96 fold
- Serum ALT level, Peak Median fold increase from Baseline: 1.53 fold
- Subjects completed study: 14 (51.9%) n (%)
- Total Bilirubin (Screening) >1-[…] ULN, subjects: 1 (3.8%)
- Total Bilirubin (Screening) >1.5-3 × ULN, subjects: 1 (3.8%)
- Total Bilirubin (Screening) >3-10 × ULN, subjects: 0
- Total Bilirubin (Screening) >10 × ULN, subjects: 0
- Total Bilirubin (any time during therapy) >1-[…] ULN, subjects: 0
